Results: patent EP0560267B1, “Isosteric antiherpes peptide derivatives” (BOEHRINGER INGELHEIM (CANADA) LTD., priority 1992, dated 1993)
pEC50, pIC50: −log10 of the molar value. Like-named read-outs stand apart in the source and are kept apart here.

Columns and labels:
[1] = biological target: T1, HSV-1 ribonucleotide reductase (Human herpesvirus 1, UniProt P08543); assay: Inhibition of Herpes Simplex Virus (HSV-1) ribonucleotide reductase; format: biochemical
T1 construct: HSV-1 ribonucleotide reductase (partially purified) was obtained from quiescent BHK-21/C13 cells infected with strain F HSV-1 virus; made in house; host or cells: quiescent BHK-21/C13 cells infected with HSV-1 strain F (virus-encoded enzyme, partially purified)
T1 sequence (P08543 whole entry): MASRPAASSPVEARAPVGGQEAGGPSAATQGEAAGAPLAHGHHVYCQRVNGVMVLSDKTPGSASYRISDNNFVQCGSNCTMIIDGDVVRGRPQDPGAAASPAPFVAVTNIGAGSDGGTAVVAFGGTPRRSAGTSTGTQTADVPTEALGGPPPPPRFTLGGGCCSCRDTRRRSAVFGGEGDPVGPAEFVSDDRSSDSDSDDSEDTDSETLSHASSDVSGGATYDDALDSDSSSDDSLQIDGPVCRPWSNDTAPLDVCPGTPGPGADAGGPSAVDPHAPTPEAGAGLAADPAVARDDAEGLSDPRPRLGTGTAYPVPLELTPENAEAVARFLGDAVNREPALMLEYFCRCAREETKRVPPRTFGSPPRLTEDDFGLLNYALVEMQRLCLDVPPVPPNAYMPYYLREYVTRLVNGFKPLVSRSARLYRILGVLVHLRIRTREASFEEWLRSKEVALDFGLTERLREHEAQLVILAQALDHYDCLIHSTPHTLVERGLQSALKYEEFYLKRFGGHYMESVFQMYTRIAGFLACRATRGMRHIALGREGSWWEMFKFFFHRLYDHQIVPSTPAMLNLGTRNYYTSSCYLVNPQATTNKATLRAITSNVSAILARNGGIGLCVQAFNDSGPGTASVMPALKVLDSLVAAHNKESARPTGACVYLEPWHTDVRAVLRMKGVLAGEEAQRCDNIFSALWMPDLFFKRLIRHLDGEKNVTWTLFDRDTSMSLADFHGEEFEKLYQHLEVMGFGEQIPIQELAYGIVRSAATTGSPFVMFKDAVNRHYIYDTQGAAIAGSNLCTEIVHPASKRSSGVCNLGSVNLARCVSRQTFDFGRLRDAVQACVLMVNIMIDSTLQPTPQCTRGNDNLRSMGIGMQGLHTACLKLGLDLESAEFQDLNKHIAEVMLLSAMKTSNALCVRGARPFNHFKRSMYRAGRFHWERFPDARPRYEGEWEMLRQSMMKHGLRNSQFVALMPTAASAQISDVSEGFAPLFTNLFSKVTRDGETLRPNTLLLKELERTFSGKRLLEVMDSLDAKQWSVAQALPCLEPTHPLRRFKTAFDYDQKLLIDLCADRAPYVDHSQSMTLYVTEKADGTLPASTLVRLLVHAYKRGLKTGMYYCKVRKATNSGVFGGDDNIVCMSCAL
Excerpt: Inhibition of Herpes Simplex Virus (HSV-1) Ribonucleotide Reductase
• a) Preparation of Enzyme HSV-1 ribonucleotide reductase (partially purified) was obtained from quiescent BHK-21/C13 cells infected with strain F HSV-1 virus at 10 plaque forming units/cell as described by E.A. Cohen et al., J. Gen. Virol., 66, 733 (1985). • b) Assay and Results for Exemplified Peptides By following the procedure described by P. Gaudreau et al., J. Biol, Chem., 262, 12413 (1987), the assay results listed in the following Table I were obtained. The assay result for each exemplified compound of formula 1 is expressed as the concentration of the compound producing 50% of the maximal inhibition (IC50) of enzyme activity. The number of units of the enzyme preparation used in each assay was constant, based on the specific activity of the enzyme preparation. The results are relative to the activity obtained in control experiments without the test compound and represent the mean of four assays that varied less than 10% with each other.

HSV-2 = assay: Inhibition of Herpes Simplex Virus (HSV-2) replication in cell culture; format: cell-based
Experimental: Inhibition of Herpes Simplex Virus (HSV-2) Replication in Cell Culture
BHK-21/C13 cells (ATCC CCL 10) are incubated for two days in 150 cm^2 T-flasks (1.5 x 10^6 cells/flask) with alpha-MEM medium (Gibco Canada Inc., Burlington, Ontario, Canada) supplemented with 8% (v/v) fetal bovine serum (FBS, Gibco Canada Inc.). The cells are trypsinized and then transferred to fresh media in a 24 well plate to give 2.5 x 10^5 cells in 750 µL of media per well. The cells are incubated at 37° for a period of 6 h to allow them to adhere to the plate. Thereafter, the cells are washed once with 500 µL of alpha-MEM supplemented with 0.5% (v/v) FBS and then incubated with 750 µL of the same media (low serum) for 3 days. After this period of serum starvation, the low serum medium is removed and the cells are incubated in 500 µL of BBMT for 2 to 3 hours. {BBMT medium is described by P. Brazeau et al., Proc. Natl. Acad. Sci. USA, 79, 7909 (1982).} Thereafter, the cells are infected with HSV-2 (multiplicity of infection = 0.02 PFU/cell) in 100 µL of BBMT medium. (Note: The HSV-2 used was strain HG-52, see Y. Langelier and G. Buttin, J. Gen. Virol., 57, 21 (1981); the virus was stored at -80°.) Following 1 h of virus adsorption at 37°, the media is removed and the cells are washed with BBMT (3 X 250 µL). The cells in each well are incubated with or without (control) appropriate concentrations of the test agent dissolved in 200 µL of BBMT medium. After 29 h of incubation at 37°, the infected cells are harvested by first freezing the plate at -80°, followed by thawing. The cells in each well are scraped off the surface of the well with the help of the melting ice fragments. After complete thawing, the cell suspensions are collected and each well is rinsed with 150 µL of BBMT medium. The viral sample (suspension plus washing) is sonicated gently for 4 min at 4°. Cell debris are removed by centrifugation (1000 times gravity for 10 minutes at 4°). The supernatant is collected and stored at -80° until determination of viral titer.
Viral titration was performed by a modification of the colorimetric assay method of M. Langlois et al., Journal of Biological Standardization, 14, 201 (1986).
More specifically, in a similar manner as described above, BHK-21/C13 cells are trypsinized and transferred to fresh media in a 96 well microtiter plate to give 20,000 cells in 100 µL of media per well. The cells in the prepared plate are incubated at 37° for 2 h. During that time, the viral sample is thawed and sonicated gently for 15 seconds, and log dilutions of the sample are prepared (1/5 sequential: 50 µL of the sample plus 200 µL of BBMT medium, sequential dilutions being done with a multichannel pipette.
On completion of the above 2 hour incubation of the BHK-21/C13 cells, the media is replaced with alpha-MEM medium supplemented with 3% (v/v) FBS. The cells are now ready to be infected with the various sample dilutions of virus. Aliquots (50 µL) of the various dilutions are transferred into the appropriate wells of the plate. The resulting infected cells are incubated for 2 days at 37°. Then 50 µL of a 0.15% (v/v) solution of neutral red dye in Hank's Balanced Salt Solution (pH 7.3, Gibco Canada Inc.) is added to each well. The prepared plate is incubated for 45 min at 37°. Medium from each well is then aspirated and the cells are washed once with 200 µL of Hank's Balanced Salt Solution. […]

[2] = Human alphaherpesvirus 2, Table IV, cell culture assay of example 11, read-out: EC50
[3] = Table I, partially purified enzyme from BHK-21/C13 cells infected with strain F HSV-1, mean of four assays
[4] = Human alphaherpesvirus 2, BHK21 (C13), 29 h, Table II, BHK-21/C13 cells, HSV-2 strain HG-52, 0.02 PFU/cell, 29 h incubation, read-out: EC50
[5] = Human alphaherpesvirus 2, Table V, cell culture assay of example 11

Compound | pIC50 ([1]; Table IV, assay of example 10) | pEC50 (HSV-2; [2]) | further results
CCCC(CCC)NC(=O)NC(C(=O)CC(CC(=O)C1(C)CCCC1)C(=O)NC(C(=O)NCC(C)(C)C)C1(C(=O)O)CCCC1)C(C)(C)C [Pr2CHNHC(O)-Tbg-CH2-(R)-CH{CH2-C(O)-(1-methylcyclopentyL)}C(O)-Asp(cyPn)-NHCH2CMe3] | – | – | pIC50 ([1]; Table V, assay of example 10): 6.62; pEC50 (HSV-2; Human alphaherpesvirus 2): 4.46
CCCC(CCC)NC(=O)NC(C(=O)CC(CC(=O)C(C)(C)C)C(=O)NC(C(=O)NCC1CCCCC1)C1(C(=O)O)CCCC1)C(C)(C)C [Pr2CHNHC(O) / NHCH2-(cyclohexyl), Pr2CHNHC(O)-Tbg-CH2-(R)-CH(CH2C(O)CMe3)C(O)-Asp(cyPn)-NHCH2-(cyclohexyl)] | 6.44 | 4.33 | –
CCCC(C)(CCC)NC(=O)N[C@H](C(=O)C[C@@H](CC(=O)C(C)(C)C)C(=O)N[C@H](C(=O)NCC(C)(C)C)C1(C(=O)O)CCCC1)C(C)(C)C [MePr2CNHC(O) / NHCH2CMe3, MePr2CNHC(O)-Tbg-CH2-(R)-CH(CH2C(O)CMe3)C(O)-Asp(cyPn)-NHCH2CMe3] | 6.55 | 4.59 | –
CCCC(CCC)NC(=O)NC(C(=O)CC(CC(=O)C(C)(C)C)C(=O)NC(C(=O)NC(CO)CC(C)(C)C)C1(C(=O)O)CCCC1)C(C)(C)C [Pr2CHNHC(O)-Tbg-CH2-(R)-CH(CH2C(O)-CMe3)C(O)-Asp(cyPn)-γMeLeucinol] | – | – | pIC50 [1, 3]: 6.70; pEC50 (HSV-2; [4]): 4.52
CCCC(CC)(CCC)NC(=O)NC(C(=O)CC(CC(=O)C(C)(C)C)C(=O)NC(C(=O)NC(C)C(C)(C)C)C1(C(=O)O)CCCC1)C(C)(C)C [EtPr2CNHC(O) / NH-(R)-CH(Me)CMe3, EtPr2CNHC(O)-Tbg-CH2-(R)-CH(CH2C(O)CMe3)C(O)-Asp(cyPn)-NH-(R)-CH(Me)CMe3] | 6.39 | 5.00 | –
C=CCC(C(=O)O)C(NC(=O)C(CC(=O)C(NC(=O)NC(CCC)CCC)C(C)(C)C)CC(=O)C(C)(C)C)C(=O)NCC(C)(C)C [Pr2CHNHC(O)-Tbg-CH2-(R)-CH(CH2-C(O)CMe3)C(O)-Asp{(R)-allyl}-NHCH2CMe3] | – | – | pIC50 ([1]; Table V, assay of example 10): 6.52; pEC50 (HSV-2; [5]): 4.21
CCCC(CCC)NC(=O)NC(C(=O)CC(CC(=O)C(C)(C)CC)C(=O)NC(C(=O)NCC(C)(C)C)C1(C(=O)O)CCCC1)C(C)(C)C [Pr2CHNHC(O)-Tbg-CH2-(R)-CH(CH2-C(O)CMe2Et)C(O)-Asp(cyPn)-NHCH2-CMe3] | – | – | pIC50 ([1]; Table V, assay of example 10): 6.68; pEC50 (HSV-2; [5]): 4.48
CCCC(CCC)NC(=O)NC(C(=O)CC(CC(=O)C1CCC1)C(=O)NC(C(=O)NCC(C)(C)C)C1(C(=O)O)CCCC1)C(C)(C)C [Pr2CHNHC(O)-Tbg-CH2-(R)-CH{CH2-C(O)-(cyclobutyl)}C(O)-Asp(cyPn)-NHCH2CMe3] | – | – | pIC50 ([1]; Table V, assay of example 10): 6.51; pEC50 (HSV-2; Human alphaherpesvirus 2): 4.34
CCC(CC)NC(=O)NC(C(=O)CC(CC(=O)C(C)(C)C)C(=O)NC(C(=O)NCC(C)(C)C)C1(C(=O)O)CCCC1)C(C)(C)C [Et2CHNHC(O)-Tbg-CH2-(R)-CH(CH2C(O)-CMe3)C(O)-Asp(cyPn)-NHCH2CMe3] | – | – | pIC50 [1, 3]: 6.64; pEC50 (HSV-2; [4]): 4.25
CCCC(CCC)NC(=O)NC(C(=O)CC(CC(=O)C(C)(C)C)C(=O)NC(C(=O)NC(C)C(C)(C)C)C1(C(=O)O)CCCC1)C(C)(C)CC [Pr2CHNHC(O)-NH-(S)-CH(CMe2Et)-C(O)-CH2-(R)-CH(CH2C(O)CMe3)C(O)-Asp-(cyPn)-NH-(R)-CH(Me)CMe3] | – | – | pIC50 ([1]; Table V, assay of example 10): 6.60; pEC50 (HSV-2; [5]): 4.89
CCCC(CC)(CCC)NC(=O)NC(C(=O)CC(CC(=O)C(C)(C)C)C(=O)NC(C(=O)NC(CC)C(C)(C)C)C1(C(=O)O)CCCC1)C(C)(C)C [EtPr2CNHC(O) / NH-(R)-CH(Et)CMe3, EtPr2CNHC(O)-Tbg-CH2-(R)-CH(CH2C(O)CMe3)C(O)-Asp(cyPn)-NH-(R)-CH(Et)CMe3] | 6.44 | 5.22 | –
C=CCC(CC=C)NC(=O)NC(C(=O)CC(CC(=O)C(C)(C)C)C(=O)NC(C(=O)NC(C)C(C)(C)C)C1(C(=O)O)CCCC1)C(C)(C)C [(CH2=CHCH2)2-CHNHC(O)-Tbg-CH2-(R)-CH(CH2C(O)CMe3)C(O)-Asp(cyPn)-NH-(R)-CH(Me)CMe3] | 6.49 | 4.32 | –
CCCC(CCC)NC(=O)NC(C(=O)CC(CC(=O)C(C)(C)C)C(=O)NC(C(=O)NC(C)C(CC)CC)C1(C(=O)O)CCCC1)C(C)(C)C [Pr2CHNHC(O) / NH-(R)-CH(Me)CHEt2, Pr2CHNHC(O)-Tbg-CH2-(R)-CH(CH2C(O)CMe3)C(O)-Asp(cyPn)-NH-(R)-CH(Me)CHEt2] | 6.48 | 4.80 | –

Continued, in another order:

pIC50 ([1]; Table IV, assay of example 10) | pEC50 (HSV-2; [2]) | Compound | further results
6.47 | 5.00 | CCCC(CCC)NC(=O)NC(C(=O)CC(CC(=O)C(C)(C)C)C(=O)NC(C(=O)NC(CC)C(C)(C)C)C1(C(=O)O)CCCC1)C(C)(C)C [Pr2CHNHC(O) / NH-(R)-CH(Et)CMe3, Pr2CHNHC(O)-Tbg-CH2-(R)-CH(CH2C(O)CMe3)C(O)-Asp(cyPn)-NH-(R)-CH(Et)CMe3] | –
6.28 | 4.19 | CCCCC(CCCC)NC(=O)NC(C(=O)CC(CC(=O)C(C)(C)C)C(=O)NC(C(=O)NCC(C)(C)C)C1(C(=O)O)CCCC1)C(C)(C)C [Bu2CHNHC(O) / NHCH2CMe3, Bu2CHNHC(O)-Tbg-CH2-(R)-CH(CH2C(O)CMe3)C(O)-Asp(cyPn)-NHCH2CMe3] | –
6.59 | 4.46 | CCCCC(CC)NC(=O)NC(C(=O)CC(CC(=O)C(C)(C)C)C(=O)NC(C(=O)NCC(C)(C)C)C1(C(=O)O)CCCC1)C(C)(C)C [(R,S)-EtBuCH-NHC(O) / NHCH2CMe3, (R,S)-EtBuCH-NHC(O)-Tbg-CH2-(R)-CH(CH2C(O)CMe3)C(O)-Asp(cyPn)-NHCH2CMe3] | –
6.24 | 4.14 | CCCC(CCC)NC(=O)NC(C(=O)CC(CC(=O)C(C)(C)C)C(=O)NC(C(=O)NCCC(C)(C)C)C1(C(=O)O)CCCC1)C(C)(C)C [Pr2CHNHC(O) / NHCH2CH2CMe3, Pr2CHNHC(O)-Tbg-CH2-(R)-CH(CH2C(O)CMe3)C(O)-Asp(cyPn)-NHCH2CH2CMe3] | –
6.30 | – | CCCC(CCC)NC(=O)NC(C(=O)CC(CC(=O)C(C)(C)C)C(=O)NC(C(=O)NC(C)C(C)(C)CC)C1(C(=O)O)CCCC1)C(C)(C)C [Pr2CHNHC(O)-Tbg-CH2-(R)-CH(CH2C(O)CMe3)C(O)-Asp(cyPn)-NH-(R)-CH(Me)C(Me)2Et] | pEC50 (HSV-2; Human alphaherpesvirus 2, Table IV, cell culture assay of example 11): 4.68
6.38 | 4.46 | CCCC(CCC)NC(=O)NC(C(=O)CC(CC(=O)C(C)(C)C)C(=O)NC(C(=O)NCC(C)(C)CCC)C1(C(=O)O)CCCC1)C(C)(C)C [Pr2CHNHC(O) / NHCH2CMe2Pr, Pr2CHNHC(O)-Tbg-CH2-(R)-CH(CH2C(O)CMe3)C(O)-Asp(cyPn)-NHCH2CMe2Pr] | –
6.64 | 4.32 | CCCC(CCC)NC(=O)NC(C(=O)CC(CC(=O)C(C)(C)C)C(=O)NC(C(=O)NC(CO)C(C)(C)C)C1(C(=O)O)CCCC1)C(C)(C)C [Pr2CHNHC(O) / NH-(S)-CH(CMe3)CH2OH, Pr2CHNHC(O)-Tbg-CH2-(R)-CH(CH2C(O)CMe3)C(O)-Asp(cyPn)-NH-(S)-CH(CMe3)CH2OH] | –
